Results on one compound are retold here after patent US10730875B2, “Substituted imidazo[1,2-A]pyridin-2-ylamine compounds, and pharmaceutical compositions and methods of use thereof” (JN Therapeutics, priority 2015, dated 2020).

Structures are written as SMILES. Where only a bound is given, the exact number is not on record here.

Series [1] is described as follows: Pharmacokinetics in Sprague-Dawley rats (HPLC-MS/MS of plasma). The format is in vivo. The note with it: rat. On the procedure:
The PK parameters of compound 14 were determined in Sprague-Dawley rats (Hubei Provincial Laboratory Animal Research Center) after a single oral (p.o) and intravenous (i.v.) administration using HPLC-MS/MS (Shimadzu LC-20ACXR HPLC coupled with AB Sciex API 4500 Qtrap).
A sensitive and specific HPLC-MS/MS method was developed for the determination of the compound in rat plasma. Multiple reaction monitoring (MRM) mode was used for the quantification of the compound by monitoring the ion transitions at m/z from 443.1 to 375.1. Compound 2 was used as an internal standard and monitored by the ion transition at m/z from 427.1 to 357.1. Calibration curves were constructed in the range of 1.00-1000 ng/mL in rat plasma extract by a 1/×2 weighted quadratic regression. The regression coefficients obtained were greater than 0.99 and back calculated values comprised in the range of ±15% from their nominal concentration.
For the intravenous administration, the compound was dissolved in 25% PEG200 in saline and intravenously administrated at a single dose of 1.00 mg/kg. For the oral administration, the compound was suspended in 0.5% sodium carboxymethylcellulose (CMC-Na) solution and intragastrically administrated at a single dose of 5.00 mg/kg. Approximately 0.200 mL of blood sample were collected from orbital venous plexus at 0 (predose), 0.25, 0.5, 1, 2, 4, 8, 12 and 24 hrs post dosing. All samples were placed into EDTA-K2-treated tubes and centrifuged at 3,500 rpm at 4° C. for 10 min to separate the plasma fractions. The plasma samples were stored at −20° C. prior to analysis. The plasma samples were analyzed with the HPLC-MS/MS method.

The subject of series [2] is human tyrosine kinase 2 (TYK2), recombinant catalytic domain. In words: LanthaScreen TR-FRET enzymatic assay, TYK2. The format is biochemical. Conditions: ratio of IC50 against TYK2 over IC50 against JAK1. In a few lines:
(§1)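 Insect-cell-expressed catalytic domains (JAK1 aa 866-1154, 440 ng/mL; JAK2 aa 808-1132, 11 ng/mL; JAK3 aa 781-1124, 400 ng/mL; TYK2 aa 833-1187, 200 ng/mL) preincubated 15 min with compound, then reacted 1 h at room temperature with 100 nM GFP-STAT1 and 1 mM ATP. pTyr701 detected by TR-FRET (terbium antibody); IC50 from 10-dose sigmoid fits.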

In series [3] the target is human tyrosine kinase 2 (TYK2), recombinant catalytic domain (Homo sapiens (Human), UniProt P29597). Description: LanthaScreen TR-FRET enzymatic assay, TYK2. The format is biochemical. The note with it: TR-FRET, 1 mM ATP, GFP-STAT1 substrate; read-out: Inhibitory Activity IC50 TYK2. In a few lines:
as §1

The test system of series [4] is human Janus kinase 3 (JAK3), recombinant catalytic domain. Description: LanthaScreen TR-FRET enzymatic assay, JAK3. Conditions: ratio of IC50 against JAK3 over IC50 against JAK1. The format is biochemical. In a few lines:
as §1
On the technique in general: In TR-FRET formats the signal depends on donor and acceptor labels being close together.

For series [5], the target named is human Janus kinase 3 (JAK3), recombinant catalytic domain (Homo sapiens (Human), UniProt P52333). Description: LanthaScreen TR-FRET enzymatic assay, JAK3. Format: biochemical. Conditions: TR-FRET, 1 mM ATP, GFP-STAT1 substrate; read-out: Inhibitory Activity IC50 JAK3. In a few lines:
as §1

Setting [6] is: Sprague-Dawley, plasma, IV, single dose 1.00 mg/kg.
Where [7] appears, read: Sprague-Dawley, plasma, PO, single dose 5.00 mg/kg.

human Janus kinase 3 (JAK3), recombinant catalytic domain (Homo sapiens (Human), UniProt P52333), sequence (P52333 781-1124): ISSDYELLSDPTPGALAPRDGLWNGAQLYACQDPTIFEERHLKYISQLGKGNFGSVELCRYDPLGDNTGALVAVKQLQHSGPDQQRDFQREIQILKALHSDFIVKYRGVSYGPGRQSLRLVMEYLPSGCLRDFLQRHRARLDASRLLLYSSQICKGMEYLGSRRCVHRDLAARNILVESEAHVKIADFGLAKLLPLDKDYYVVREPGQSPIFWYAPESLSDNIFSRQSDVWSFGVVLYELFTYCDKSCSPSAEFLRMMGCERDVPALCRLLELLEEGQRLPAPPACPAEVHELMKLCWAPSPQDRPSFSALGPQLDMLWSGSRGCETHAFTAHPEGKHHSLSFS
human tyrosine kinase 2 (TYK2), recombinant catalytic domain (Homo sapiens (Human), UniProt P29597), sequence (P29597 833-1187): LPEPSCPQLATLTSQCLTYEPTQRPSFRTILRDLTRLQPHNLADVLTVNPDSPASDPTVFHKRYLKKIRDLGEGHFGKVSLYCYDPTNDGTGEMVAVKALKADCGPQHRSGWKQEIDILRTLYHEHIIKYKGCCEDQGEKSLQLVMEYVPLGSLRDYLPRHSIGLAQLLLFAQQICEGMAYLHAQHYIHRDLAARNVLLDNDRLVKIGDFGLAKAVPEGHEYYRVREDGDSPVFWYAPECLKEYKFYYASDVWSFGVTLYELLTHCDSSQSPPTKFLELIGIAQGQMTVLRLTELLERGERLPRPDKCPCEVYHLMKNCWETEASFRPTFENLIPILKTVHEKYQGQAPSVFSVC

In turn, `O=C(Nc1cn2c(-c3ccc(CN4CCS(=O)(=O)CC4)cc3F)cccc2n1)C1CC1` [Compound 14] came in with a F in series [1] (PO, single dose 5.00 mg/kg) of 46.7 ± 7.3%. In series [1] (setting [6]), this compound showed an area under the curve AUC(0-t) of 677 ± 122 ng·h/mL, a mean residence time (MRT) of 1.4 ± 0.2 h, a clearance of 24.8 mL/min/kg and a half-life of 1.4 ± 0.3 h. The Vd in series [1] (Sprague-Dawley, plasma, IV, single dose 1.00 mg/kg, read-out: Vz) was 2.98 ± 0.912 L/kg. In addition, in series [1] (setting [7]), the AUC(0-t) was found to be 1590 ± 253 ng·h/mL, the peak concentration (Cmax) was 571 ± 190 ng/mL, the MRT worked out at 2.3 ± 0.4 h and the Tmax worked out at 0.63 ± 0.25 h. The compound further showed a half-life in series [1] (setting [7]) of 1.9 ± 0.3 h. Moreover, the “Selectivity TYK2/JAK1” value in series [2] was “A′ (A′ represents a ratio of greater than 8)”. In series [3], the IC50 lay in the range of 1 to 5 µM. Besides, the “Selectivity JAK3/JAK1” value in series [4] was “A′ (A′ represents a ratio of greater than 8)”. For the same compound, the 50% inhibitory concentration (IC50) in series [5] was above 5 µM.

Broadly, the AUC(0-t) is exposure summed from dosing to a finite time, without extrapolation to infinity. By MRT is commonly meant the average time that molecules of a dose stay in the body. Usually clearance stands for the volume of plasma or blood freed of the substance per unit of time. Broadly, the half-life is the time needed for the level to fall by half in the phase considered. A word on the Cmax: it is the highest concentration seen after dosing. One may read the Tmax as the time at which the peak concentration occurs. The IC50 is the point on the concentration scale where inhibition reaches its midpoint.
